For two molecules, IC50 results are on record in paper PMC6407917, “Identification of GSK3186899/DDD853651 as a Preclinical Development Candidate for the Treatment of Visceral Leishmaniasis” (Journal of Medicinal Chemistry, 2018).

Each structure is given as a SMILES string. Where two headings read alike, the source gives them in different places.

Data set [1] deals with T1, PRKAA2 (Homo sapiens, UniProt P54646). The data set can be described thus: biochemical. More on the design: species or system HEK293/K-562/placenta mixed human extract; Kinobeads chemoproteomic competition binding, quantified by TMT LC-MS/MS, dose response up to 20 uM.
T1 sequence (P54646 whole entry): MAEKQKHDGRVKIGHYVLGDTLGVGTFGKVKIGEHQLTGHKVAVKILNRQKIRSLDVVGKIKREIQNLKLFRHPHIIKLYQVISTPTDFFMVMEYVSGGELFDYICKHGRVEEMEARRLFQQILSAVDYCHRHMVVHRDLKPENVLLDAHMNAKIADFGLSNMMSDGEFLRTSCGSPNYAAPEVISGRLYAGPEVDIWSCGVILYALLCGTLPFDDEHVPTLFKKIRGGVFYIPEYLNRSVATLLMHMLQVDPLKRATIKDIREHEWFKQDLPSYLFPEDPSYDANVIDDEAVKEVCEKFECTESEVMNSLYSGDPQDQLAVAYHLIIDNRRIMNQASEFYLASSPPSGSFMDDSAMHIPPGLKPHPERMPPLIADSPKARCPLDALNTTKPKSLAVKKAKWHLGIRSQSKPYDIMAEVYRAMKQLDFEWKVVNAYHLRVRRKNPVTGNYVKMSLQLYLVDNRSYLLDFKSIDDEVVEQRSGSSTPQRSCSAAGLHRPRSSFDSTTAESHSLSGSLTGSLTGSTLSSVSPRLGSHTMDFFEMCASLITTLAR
The target of a further data set is LATS1 (Homo sapiens, UniProt O95835). Kind of data set: biochemical. More on the design: species or system HEK293/K-562/placenta mixed human extract; Kinobeads chemoproteomic competition binding, quantified by TMT LC-MS/MS, dose response up to 20 uM.
A further data set concerns the target MAPK14 (Homo sapiens, UniProt Q16539). Kind of data set: biochemical. The arrangement: species or system HEK293/K-562/placenta mixed human extract; Kinobeads chemoproteomic competition binding, quantified by TMT LC-MS/MS, dose response up to 20 uM.
The target of a further data set is TAOK1 (Homo sapiens, UniProt Q7L7X3). The data set can be described thus: biochemical. More on the design: species or system HEK293/K-562/placenta mixed human extract; Kinobeads chemoproteomic competition binding, quantified by TMT LC-MS/MS, dose response up to 20 uM.
In a further data set the target is CYP3A4 (Homo sapiens, UniProt P08684). The data set can be described thus: midazolam marker-substrate inhibition assay, LC-MS/MS. Type of data set: biochemical. From the text: midazolam marker-substrate inhibition assay, LC-MS/MS on CYP3A4
The next data set concerns the target PKN2 (Homo sapiens, UniProt Q16513). The data set can be described thus: biochemical. More on the design: species or system HEK293/K-562/placenta mixed human extract; Kinobeads chemoproteomic competition binding, quantified by TMT LC-MS/MS, dose response up to 20 uM.
For a further data set, the target named is BMPR1A (Homo sapiens, UniProt P36894). Kind of data set: biochemical. The arrangement: species or system HEK293/K-562/placenta mixed human extract; Kinobeads chemoproteomic competition binding, quantified by TMT LC-MS/MS, dose response up to 20 uM.
Sequence of BMPR1A (P36894 whole entry): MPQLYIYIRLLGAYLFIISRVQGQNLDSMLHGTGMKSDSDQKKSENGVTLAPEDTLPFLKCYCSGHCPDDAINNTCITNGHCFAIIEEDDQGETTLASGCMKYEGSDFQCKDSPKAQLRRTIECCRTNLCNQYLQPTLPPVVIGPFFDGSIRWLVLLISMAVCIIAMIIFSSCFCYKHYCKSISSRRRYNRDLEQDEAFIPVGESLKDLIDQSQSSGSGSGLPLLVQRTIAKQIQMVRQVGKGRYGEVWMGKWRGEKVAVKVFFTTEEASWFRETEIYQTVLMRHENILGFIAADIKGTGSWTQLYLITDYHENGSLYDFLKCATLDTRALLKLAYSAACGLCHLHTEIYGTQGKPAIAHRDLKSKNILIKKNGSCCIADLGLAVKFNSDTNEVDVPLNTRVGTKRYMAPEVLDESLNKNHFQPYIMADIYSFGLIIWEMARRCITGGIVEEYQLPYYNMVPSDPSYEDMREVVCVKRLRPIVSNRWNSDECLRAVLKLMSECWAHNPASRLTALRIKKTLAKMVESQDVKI
The target in data set [2] is T1, PRKAA2. The data set can be described thus: biochemical. More on the design: species or system HEK293/K-562/placenta mixed human extract; Kinobeads chemoproteomic competition binding, quantified by TMT LC-MS/MS, dose response up to 20 uM. This is another data set of the same source.
In a further data set the target is ULK1 (Homo sapiens, UniProt O75385). The data set can be described thus: biochemical. The arrangement: species or system HEK293/K-562/placenta mixed human extract; Kinobeads chemoproteomic competition binding, quantified by TMT LC-MS/MS, dose response up to 20 uM.
The next data set concerns the target MAPK7 (Homo sapiens, UniProt Q13164). Kind of data set: biochemical. More on the design: species or system HEK293/K-562/placenta mixed human extract; Kinobeads chemoproteomic competition binding, quantified by TMT LC-MS/MS, dose response up to 20 uM.
The target of the next data set is TP53RK (Homo sapiens, UniProt Q96S44). Kind of data set: biochemical. The arrangement: species or system HEK293/K-562/placenta mixed human extract; Kinobeads chemoproteomic competition binding, quantified by TMT LC-MS/MS, dose response up to 20 uM.
Sequence of TP53RK (Q96S44 whole entry): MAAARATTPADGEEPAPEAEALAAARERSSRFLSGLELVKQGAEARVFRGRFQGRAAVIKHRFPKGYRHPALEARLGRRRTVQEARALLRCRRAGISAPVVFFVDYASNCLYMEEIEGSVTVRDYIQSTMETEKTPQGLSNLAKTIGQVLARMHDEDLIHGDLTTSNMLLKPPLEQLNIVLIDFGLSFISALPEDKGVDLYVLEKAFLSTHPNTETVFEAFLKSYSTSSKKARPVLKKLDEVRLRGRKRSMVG
The next data set deals with STK4 (Homo sapiens, UniProt Q13043). Kind of data set: biochemical. More on the design: species or system HEK293/K-562/placenta mixed human extract; Kinobeads chemoproteomic competition binding, quantified by TMT LC-MS/MS, dose response up to 20 uM.
Sequence of STK4 (Q13043 whole entry): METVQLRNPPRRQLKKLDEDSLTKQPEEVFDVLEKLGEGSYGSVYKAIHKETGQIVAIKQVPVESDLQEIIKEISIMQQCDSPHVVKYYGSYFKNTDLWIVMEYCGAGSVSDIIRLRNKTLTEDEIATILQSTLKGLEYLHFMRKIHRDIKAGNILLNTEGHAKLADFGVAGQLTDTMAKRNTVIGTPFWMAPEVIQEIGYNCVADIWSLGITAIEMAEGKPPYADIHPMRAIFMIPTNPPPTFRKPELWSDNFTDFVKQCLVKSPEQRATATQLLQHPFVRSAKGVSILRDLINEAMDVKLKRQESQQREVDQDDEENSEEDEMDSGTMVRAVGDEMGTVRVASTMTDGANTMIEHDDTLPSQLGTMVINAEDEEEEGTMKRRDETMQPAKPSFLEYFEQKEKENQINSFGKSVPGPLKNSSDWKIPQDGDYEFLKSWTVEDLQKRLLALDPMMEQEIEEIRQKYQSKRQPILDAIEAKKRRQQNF
Another data set deals with TGFBR1 (Homo sapiens, UniProt P36897). Kind of data set: biochemical. More on the design: species or system HEK293/K-562/placenta mixed human extract; Kinobeads chemoproteomic competition binding, quantified by TMT LC-MS/MS, dose response up to 20 uM.
Sequence of TGFBR1 (P36897 whole entry): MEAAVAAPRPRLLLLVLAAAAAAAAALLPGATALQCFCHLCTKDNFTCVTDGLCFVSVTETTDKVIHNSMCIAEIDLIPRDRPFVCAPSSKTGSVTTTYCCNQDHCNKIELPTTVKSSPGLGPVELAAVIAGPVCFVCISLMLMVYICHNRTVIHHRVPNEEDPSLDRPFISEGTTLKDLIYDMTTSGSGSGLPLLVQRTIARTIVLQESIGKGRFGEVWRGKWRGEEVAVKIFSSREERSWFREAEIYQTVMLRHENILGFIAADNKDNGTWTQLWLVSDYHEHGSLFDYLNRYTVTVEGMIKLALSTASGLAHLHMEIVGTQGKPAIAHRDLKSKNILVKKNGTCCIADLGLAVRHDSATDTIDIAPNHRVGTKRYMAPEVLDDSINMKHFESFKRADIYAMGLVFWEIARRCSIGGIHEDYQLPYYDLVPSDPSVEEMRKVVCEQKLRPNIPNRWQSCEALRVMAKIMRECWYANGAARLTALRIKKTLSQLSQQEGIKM
A further data set has as its target IRAK4 (Homo sapiens, UniProt Q9NWZ3). The data set can be described thus: biochemical. The arrangement: species or system HEK293/K-562/placenta mixed human extract; Kinobeads chemoproteomic competition binding, quantified by TMT LC-MS/MS, dose response up to 20 uM.
The next data set has as its target YWHAG (Homo sapiens, UniProt P61981). The data set can be described thus: biochemical. More on the design: species or system HEK293/K-562/placenta mixed human extract; Kinobeads chemoproteomic competition binding, quantified by TMT LC-MS/MS, dose response up to 20 uM.
A further data set addresses FER (Homo sapiens, UniProt P16591). Kind of data set: biochemical. The arrangement: species or system HEK293/K-562/placenta mixed human extract; Kinobeads chemoproteomic competition binding, quantified by TMT LC-MS/MS, dose response up to 20 uM.
A further data set concerns the target TTK (Homo sapiens, UniProt P33981). The data set can be described thus: biochemical. More on the design: species or system HEK293/K-562/placenta mixed human extract; Kinobeads chemoproteomic competition binding, quantified by TMT LC-MS/MS, dose response up to 20 uM.
The next data set deals with YWHAZ (Homo sapiens, UniProt P63104). Kind of data set: biochemical. The arrangement: species or system HEK293/K-562/placenta mixed human extract; Kinobeads chemoproteomic competition binding, quantified by TMT LC-MS/MS, dose response up to 20 uM.
Sequence of YWHAZ (P63104 whole entry): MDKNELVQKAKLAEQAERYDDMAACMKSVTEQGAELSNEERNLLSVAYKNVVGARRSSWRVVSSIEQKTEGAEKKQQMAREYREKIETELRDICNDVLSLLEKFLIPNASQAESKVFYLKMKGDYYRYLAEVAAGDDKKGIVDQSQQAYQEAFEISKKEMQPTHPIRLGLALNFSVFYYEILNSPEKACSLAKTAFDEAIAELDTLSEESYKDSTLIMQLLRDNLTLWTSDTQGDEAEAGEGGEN
Another data set addresses TBK1 (Homo sapiens, UniProt Q9UHD2). Kind of data set: biochemical. The arrangement: species or system HEK293/K-562/placenta mixed human extract; Kinobeads chemoproteomic competition binding, quantified by TMT LC-MS/MS, dose response up to 20 uM.
The target of another data set is T2, hERG (Homo sapiens, UniProt Q12809).
T2 construct: gene KCNH2; in vitro hERG assay, standard protocol
The data set can be described thus: in vitro hERG assay, standard protocol. Type of data set: cell-based. The note with it: read-out: 1. From the text: in vitro hERG assay, standard protocol on hERG
For orientation: hERG is a cardiac potassium channel; its block is linked to QT prolongation.

For another data set, the target named is Cdk4 (Homo sapiens, UniProt P11802). The note with it: mixed human cell/tissue extract; maximum concentration 20 μM.
Sequence of Cdk4 (P11802 2-303): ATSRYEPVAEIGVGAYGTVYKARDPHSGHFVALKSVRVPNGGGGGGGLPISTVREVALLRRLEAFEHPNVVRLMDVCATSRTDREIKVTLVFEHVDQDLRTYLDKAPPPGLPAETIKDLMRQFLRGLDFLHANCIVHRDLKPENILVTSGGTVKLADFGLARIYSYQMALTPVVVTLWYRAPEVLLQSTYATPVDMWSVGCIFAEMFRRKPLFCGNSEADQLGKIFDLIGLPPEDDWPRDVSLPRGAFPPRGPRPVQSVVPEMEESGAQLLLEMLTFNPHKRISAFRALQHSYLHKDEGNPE

Sequence of FER (P16591 whole entry): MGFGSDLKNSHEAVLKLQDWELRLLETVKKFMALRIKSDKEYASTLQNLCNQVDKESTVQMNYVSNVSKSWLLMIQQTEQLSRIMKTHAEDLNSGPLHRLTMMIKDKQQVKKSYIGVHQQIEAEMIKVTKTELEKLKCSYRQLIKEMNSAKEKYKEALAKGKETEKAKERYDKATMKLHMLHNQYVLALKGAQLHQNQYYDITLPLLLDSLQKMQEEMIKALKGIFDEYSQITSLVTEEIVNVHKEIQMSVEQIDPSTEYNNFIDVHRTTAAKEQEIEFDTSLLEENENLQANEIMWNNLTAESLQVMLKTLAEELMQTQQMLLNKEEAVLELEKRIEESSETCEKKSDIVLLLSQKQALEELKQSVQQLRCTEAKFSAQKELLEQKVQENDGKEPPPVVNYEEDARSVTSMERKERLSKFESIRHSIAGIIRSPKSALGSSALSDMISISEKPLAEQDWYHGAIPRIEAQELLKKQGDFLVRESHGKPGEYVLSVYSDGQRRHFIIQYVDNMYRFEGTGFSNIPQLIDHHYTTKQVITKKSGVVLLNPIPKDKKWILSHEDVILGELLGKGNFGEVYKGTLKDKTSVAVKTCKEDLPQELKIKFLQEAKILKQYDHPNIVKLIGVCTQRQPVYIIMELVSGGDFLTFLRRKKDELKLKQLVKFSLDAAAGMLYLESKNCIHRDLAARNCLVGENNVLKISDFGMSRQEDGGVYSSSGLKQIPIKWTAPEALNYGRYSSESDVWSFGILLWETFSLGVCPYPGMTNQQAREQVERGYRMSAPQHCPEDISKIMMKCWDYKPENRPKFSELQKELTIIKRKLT
Sequence of IRAK4 (Q9NWZ3 whole entry): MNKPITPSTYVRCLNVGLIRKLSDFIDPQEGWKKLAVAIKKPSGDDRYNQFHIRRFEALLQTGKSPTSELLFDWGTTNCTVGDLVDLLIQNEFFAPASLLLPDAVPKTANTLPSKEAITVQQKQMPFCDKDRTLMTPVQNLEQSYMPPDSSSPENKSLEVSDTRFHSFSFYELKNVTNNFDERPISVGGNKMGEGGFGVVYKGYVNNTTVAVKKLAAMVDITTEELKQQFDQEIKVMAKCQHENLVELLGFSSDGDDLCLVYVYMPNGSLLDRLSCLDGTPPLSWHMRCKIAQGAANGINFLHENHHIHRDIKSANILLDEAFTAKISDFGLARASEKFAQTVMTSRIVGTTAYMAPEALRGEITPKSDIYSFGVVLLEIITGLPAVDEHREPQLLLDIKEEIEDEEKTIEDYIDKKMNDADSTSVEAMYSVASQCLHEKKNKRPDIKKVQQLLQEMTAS
Sequence of TBK1 (Q9UHD2 whole entry): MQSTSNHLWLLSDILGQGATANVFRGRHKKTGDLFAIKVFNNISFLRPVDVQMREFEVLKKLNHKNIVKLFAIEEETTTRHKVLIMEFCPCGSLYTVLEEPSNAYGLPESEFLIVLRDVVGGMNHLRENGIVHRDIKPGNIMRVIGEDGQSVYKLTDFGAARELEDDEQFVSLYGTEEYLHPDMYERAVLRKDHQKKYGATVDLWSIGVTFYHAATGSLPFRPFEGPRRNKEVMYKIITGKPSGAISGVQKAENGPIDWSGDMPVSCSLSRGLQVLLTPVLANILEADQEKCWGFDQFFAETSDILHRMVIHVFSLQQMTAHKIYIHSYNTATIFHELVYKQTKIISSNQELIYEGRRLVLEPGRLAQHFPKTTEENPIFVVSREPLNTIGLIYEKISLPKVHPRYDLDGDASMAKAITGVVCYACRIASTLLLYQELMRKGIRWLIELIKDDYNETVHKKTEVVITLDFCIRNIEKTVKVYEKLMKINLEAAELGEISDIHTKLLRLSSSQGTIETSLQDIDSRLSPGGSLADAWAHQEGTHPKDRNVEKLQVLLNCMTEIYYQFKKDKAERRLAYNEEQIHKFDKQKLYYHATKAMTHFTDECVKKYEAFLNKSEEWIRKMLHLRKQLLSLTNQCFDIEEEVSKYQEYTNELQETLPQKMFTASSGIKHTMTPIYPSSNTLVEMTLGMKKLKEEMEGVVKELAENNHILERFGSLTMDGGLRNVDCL

As to `COc1ccccc1-c1n[nH]c2nc(N[C@H]3CC[C@H](NS(=O)(=O)CCC(F)(F)F)CC3)nc(OC)c12` [compound 31, 3,3,3-Trifluoro-N-(trans-4-((4-methoxy-3-(2-methoxyphenyl)-1H-pyrazolo[3,4-d]pyrimidin-6-yl)amino)cyclohexyl)propane-1-sulfonamide], the IC50 at PRKAA2 [1] is not below 20 µM; on LATS1, not below 20 µM; on MAPK14, not below 20 µM; at TAOK1, 1500 nM.

As for `COc1nc(N[C@H]2CC[C@H](NS(=O)(=O)CC(C)C)CC2)nc2[nH]nc(N3CCOC[C@H]3C)c12` [compound 39, N-(trans-4-((4-Methoxy-3-((R)-3-methylmorpholino)-1H-pyrazolo[3,4-d]pyrimidin-6-yl)amino)cyclohexyl)-2-methylpropane-1-sulfonamide], the IC50 is more than 39.8 µM against CYP3A4; not below 20 µM on PKN2; not below 20 µM on BMPR1A; not below 20 µM at PRKAA2 [2]; not below 20 µM at ULK1; not below 20 µM on MAPK7. Besides, the IC50 at TP53RK, on STK4, at TGFBR1, at IRAK4, on YWHAG and at FER was not below 20 µM in each case. Further, the IC50 at TTK was not below 20 µM; at YWHAZ, not below 20 µM; on TBK1, not below 20 µM; on hERG, more than 30 µM; against Cdk4, more than 20 µM.
